Twelve compounds from ChEMBL document CHEMBL1201862, “PubChem BioAssay data set” (2004) can be followed below.

Among the test systems are CCRF-CEM; 786-0; UO-31; UACC-257; HOP-92; U-251; SK-MEL-28; SK-MEL-5; SK-OV-3; CAKI-1; RPMI-8226; SF-295; MOLT-4; A549; LOX IMVI; HCC 2998.
What all share (experiment): DTP human tumour cell line panel, 48 h

SMILES strings stand for the structures.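 The compound was tested at five concentrations on cells cultured in 96-well plates, with a 48-hour exposure period. GI50 = concentration required for 50% inhibition of growth.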 The source made the active and inactive calls. Rule as the data show it: active = GI50 up to about 1.1 µM and inactive = higher. Where only a bound is given, the exact number is not on record here.

Regarding `Cc1ccc(S(=O)(=O)c2ccc(C)cc2[N+](=O)[O-])cc1`, the GI50 with CCRF-CEM was > 100 µM (inactive); in the assay on 786-0, > 100 µM (inactive); in the assay with UO-31 it was > 100 µM (inactive); in the assay on UACC-257, 28.8 µM (inactive); with HOP-92, > 100 µM (inactive); in the assay with U-251, > 100 µM (inactive). The GI50 in the assay on SK-MEL-28 is > 100 µM (inactive); with SK-MEL-5, 24.4 µM (inactive); with SK-OV-3, > 100 µM (inactive); with CAKI-1 it was 95.9 µM (inactive); in the assay with RPMI-8226, > 100 µM (inactive); in the assay with SF-295 it was 79.4 µM (inactive). Further, the GI50 in the assay with MOLT-4 is 45.1 µM (inactive); in the assay on A549, > 100 µM (inactive); in the assay with LOX IMVI, 82.8 µM (inactive); in the assay with HCC 2998 it was > 100 µM (inactive).

As to `Cc1ccc(C(=O)O/N=C2/CCCC/C2=C\c2ccccc2)cc1`, the GI50 was 29.2 µM (inactive) in the assay on CCRF-CEM; > 100 µM (inactive) in the assay on 786-0; 17.7 µM (inactive) in the assay with UO-31; > 100 µM (inactive) with UACC-257; 54.5 µM (inactive) in the assay on HOP-92; 38.3 µM (inactive) in the assay with U-251. The GI50 in the assay on SK-MEL-28 is 12.7 µM (inactive); with SK-MEL-5 it was 37.2 µM (inactive); with SK-OV-3, > 100 µM (inactive); in the assay with CAKI-1, 63.2 µM (inactive); in the assay with RPMI-8226, 77.8 µM (inactive); in the assay on SF-295 it was 39.2 µM (inactive). For the same compound, the values for the GI50 with A549, with LOX IMVI and in the assay with HCC 2998 were 19.5 µM (inactive), 20.1 µM (inactive) and > 100 µM (inactive), respectively.

Turning to `O=C(/C=C/c1ccc(Cl)c(Cl)c1)c1ccc2ccccc2c1`, the GI50 in the assay on CCRF-CEM, with 786-0, with UO-31, with UACC-257, with HOP-92 and with U-251 was > 100 µM (inactive) in each case. For the same compound, the GI50 in the assay with SK-MEL-28, in the assay on SK-MEL-5, in the assay with SK-OV-3, with CAKI-1, in the assay on RPMI-8226 and in the assay on SF-295 was > 100 µM (inactive) throughout. Moreover, the GI50 in the assay on MOLT-4 is 48.9 µM (inactive); in the assay with A549 it was > 100 µM (inactive); with LOX IMVI it was > 100 µM (inactive); in the assay with HCC 2998, > 100 µM (inactive).

As for `COc1c(Cl)c(Cl)c(OC)c2c1C(=O)C=CC2=O`, the GI50 is 3.83 µM (inactive) in the assay on CCRF-CEM; 17.1 µM (inactive) with 786-0; 17.8 µM (inactive) in the assay with UO-31; 18.1 µM (inactive) in the assay on UACC-257; 15.3 µM (inactive) in the assay on HOP-92; 20.7 µM (inactive) in the assay with U-251. Moreover, the GI50 is 17.7 µM (inactive) with SK-MEL-28; 34.9 µM (inactive) in the assay with SK-MEL-5; 76.7 µM (inactive) in the assay on SK-OV-3; 22.9 µM (inactive) in the assay on CAKI-1; 18.2 µM (inactive) in the assay on RPMI-8226; 18.5 µM (inactive) in the assay with SF-295. In addition, the GI50 with MOLT-4 is 2.9 µM (inactive); in the assay on A549 it was 88.7 µM (inactive); in the assay with LOX IMVI, 15.9 µM (inactive); in the assay with HCC 2998 it was 60.3 µM (inactive).

As to `CCOc1ccc(NC(=O)/C(=C/c2ccccc2)C(C)=O)cc1`, the GI50 is 2.87 µM (inactive) with CCRF-CEM; 12.2 µM (inactive) with 786-0; 9.66 µM (inactive) with UO-31; 12.2 µM (inactive) in the assay on UACC-257; 14.1 µM (inactive) with HOP-92; 12.6 µM (inactive) in the assay with U-251. Moreover, the GI50 in the assay with SK-MEL-28 is 12.9 µM (inactive); in the assay on SK-MEL-5, 12.2 µM (inactive); in the assay on SK-OV-3 it was 24.6 µM (inactive); with CAKI-1 it was 11.7 µM (inactive); in the assay with RPMI-8226 it was 2.94 µM (inactive); in the assay with SF-295, 13.5 µM (inactive). The GI50 with MOLT-4 was 3.73 µM (inactive); with A549, 22.2 µM (inactive); with LOX IMVI it was 7.14 µM (inactive); with HCC 2998, 13.3 µM (inactive).

As to `CC(SC(=S)N1CCOCC1)c1cc2oc(=O)n(C)c2cc1Cl` (stereo unspecified), the GI50 is 19.8 µM (inactive) in the assay with CCRF-CEM; > 100 µM (inactive) in the assay with 786-0; > 100 µM (inactive) with UO-31; 74.5 µM (inactive) with UACC-257; > 10 µM (inactive) with HOP-92; > 100 µM (inactive) in the assay on U-251. In addition, the GI50 in the assay on SK-MEL-28 was > 100 µM (inactive); with SK-MEL-5, 62.7 µM (inactive); in the assay with SK-OV-3, > 100 µM (inactive); in the assay on CAKI-1 it was > 100 µM (inactive); in the assay on RPMI-8226, 58.2 µM (inactive); in the assay with SF-295 it was > 100 µM (inactive). Also, the GI50 is 56.1 µM (inactive) in the assay on MOLT-4, 42.2 µM (inactive) with A549, 40.9 µM (inactive) in the assay with LOX IMVI and > 100 µM (inactive) with HCC 2998.

On to `Cc1cc(C)c([O-])c(-[n+]2c(-c3ccccc3)cc(-c3ccccc3)cc2-c2ccccc2)c1`, for which the GI50 in the assay on CCRF-CEM was 1.73 µM (inactive); in the assay with 786-0 it was 6.78 µM (inactive); in the assay on UO-31, 18.9 µM (inactive); in the assay on UACC-257 it was 2.94 µM (inactive); with HOP-92, 1.73 µM (inactive); in the assay with U-251 it was 3.38 µM (inactive). The GI50 in the assay on SK-MEL-28 was 4.81 µM (inactive); in the assay with SK-MEL-5, 1.94 µM (inactive); in the assay on SK-OV-3, 13.7 µM (inactive); with CAKI-1 it was 9.27 µM (inactive); with RPMI-8226, 2.79 µM (inactive); with SF-295, 4.98 µM (inactive). For the same compound, the GI50 with MOLT-4 is 2.67 µM (inactive); with A549, 12.6 µM (inactive); in the assay on LOX IMVI, 1.72 µM (inactive); in the assay on HCC 2998, 3.51 µM (inactive).

Turning to `O=c1oc2ccccc2[n+]([O-])c1-c1ccccc1`, the GI50 with CCRF-CEM, in the assay on 786-0, in the assay with UO-31, in the assay with UACC-257, in the assay with HOP-92 and with U-251 was > 100 µM (inactive) each time. In addition, the GI50 in the assay on SK-MEL-28, in the assay on SK-MEL-5, with SK-OV-3, with CAKI-1, in the assay with RPMI-8226 and in the assay on SF-295 was > 100 µM (inactive) each time. Besides, the GI50 with MOLT-4, in the assay on A549, in the assay on LOX IMVI and in the assay with HCC 2998 was > 100 µM (inactive) each time.

Take `CN(CCN1C(=O)c2cc([N+](=O)[O-])cc3cc([N+](=O)[O-])cc(c23)C1=O)CCN1C(=O)c2cc([N+](=O)[O-])cc3cc([N+](=O)[O-])cc(c23)C1=O`: the GI50 with CCRF-CEM was 0.0524 µM (active); in the assay on 786-0 it was 0.455 µM (active); with UO-31, 4.8 µM (inactive); in the assay with UACC-257, 1.21 µM (inactive); in the assay with HOP-92 it was 0.252 µM (active); in the assay on U-251 it was 0.375 µM (active). The GI50 in the assay on SK-MEL-28 is 0.798 µM (active); in the assay on SK-MEL-5, 1.21 µM (inactive); with SK-OV-3 it was 2.31 µM (inactive); in the assay with CAKI-1, 0.322 µM (active); in the assay on RPMI-8226, 0.342 µM (active); in the assay with SF-295, 0.59 µM (active). For the same compound, the GI50 in the assay with MOLT-4 was 0.0485 µM (active); with A549, 0.887 µM (active); in the assay with LOX IMVI, 0.248 µM (active); in the assay on HCC 2998, 0.491 µM (active).

Regarding `O=C(CC(=O)n1nc(-c2ccccc2)c(/N=N/c2ccc([N+](=O)[O-])cc2)c1-c1ccccc1)Nc1ccc(Cl)cc1`, the GI50 in the assay on CCRF-CEM is 15.6 µM (inactive); in the assay with 786-0, 34.8 µM (inactive); with UO-31, 11.9 µM (inactive); in the assay on UACC-257 it was 34.8 µM (inactive); with HOP-92, 16.8 µM (inactive); in the assay on U-251, 18.9 µM (inactive). Moreover, the GI50 in the assay on SK-MEL-28 was 17.9 µM (inactive); in the assay with SK-MEL-5 it was 3.23 µM (inactive); in the assay on SK-OV-3 it was 18.8 µM (inactive); in the assay on CAKI-1 it was 20 µM (inactive); in the assay with RPMI-8226, 30.2 µM (inactive); in the assay on SF-295 it was 40.6 µM (inactive). In addition, the GI50 in the assay on MOLT-4 is 24.1 µM (inactive); with A549, 15.9 µM (inactive); in the assay on LOX IMVI, 30.2 µM (inactive); in the assay with HCC 2998 it was 20.8 µM (inactive).

Turning to `Cc1c2cc[n+](C)cc2c(C)c2c1[nH]c1ccc(O)c(OCC(F)(F)F)c12`, the GI50 in the assay with CCRF-CEM was 4.97 µM (inactive); in the assay on 786-0, 1.46 µM (inactive); with UO-31, 7.06 µM (inactive); with UACC-257, 6.31 µM (inactive); with HOP-92, 4.91 µM (inactive); in the assay on U-251, 0.301 µM (active). Besides, the GI50 is 5.65 µM (inactive) in the assay on SK-MEL-28; 1.51 µM (inactive) in the assay on SK-MEL-5; 6.75 µM (inactive) in the assay with SK-OV-3; 12.8 µM (inactive) in the assay with CAKI-1; 2.22 µM (inactive) with RPMI-8226; 0.839 µM (active) in the assay on SF-295. Also, the GI50 is 2.42 µM (inactive) in the assay on MOLT-4, 1.87 µM (inactive) in the assay with A549, 13 µM (inactive) with LOX IMVI and 4.55 µM (inactive) in the assay with HCC 2998.

As for `O=C(Cc1ccc(F)cc1)NC1=C(Cl)C(=O)c2ccccc2C1=O`, the GI50 with CCRF-CEM is 1.71 µM (inactive); with 786-0, 6.58 µM (inactive); with UO-31, 2.51 µM (inactive); in the assay on UACC-257, 2.48 µM (inactive); in the assay on HOP-92 it was 1.69 µM (inactive); with U-251, 3.07 µM (inactive). Besides, the GI50 in the assay with SK-MEL-28 was 4.05 µM (inactive); in the assay on SK-MEL-5, 2.92 µM (inactive); in the assay on SK-OV-3, 4.94 µM (inactive); with CAKI-1, 4.95 µM (inactive); with RPMI-8226, 0.262 µM (active); in the assay on SF-295, 3.83 µM (inactive). In addition, the GI50 in the assay with MOLT-4 was 1.79 µM (inactive); with A549, 3.62 µM (inactive); in the assay on LOX IMVI, 2.95 µM (inactive); with HCC 2998 it was 4.22 µM (inactive).

As usually defined, the GI50 is the concentration that inhibits growth by half.
